The results in this text go back to patent publication US5861426A, “Nitro compounds of the formula A-Xi -NO2 and their compositions having anti-inflammatory, analgesic and anti-thrombotic activities” (Nicox S.A., priority 1994, dated 1999).

Each structure is given as a SMILES string.

For one series, the system named is carrageenin-oedema. The experiment in a line: Anti-inflammatory activity, carrageenin-oedema method. The format is in vivo. The settings on record: rats, oral 3 to 30 mg/Kg in carboxymethylcellulose; natural product = 1.0. On the technique in general: The carrageenan paw model is a standard test of acute inflammation.
A further series deals with Swiss mice. The experiment in a line: Analgesic activity (Hendershot et al.). The settings on record: oral 3 to 30 mg/Kg in carboxymethylcellulose, natural product = 1.0. Type of series: in vivo.
For a further series, the system named is gastropathy. The experiment in a line: Gastric tolerance, severity of induced gastropathy. The settings on record: rats, oral 3 to 30 mg/Kg in carboxymethylcellulose; natural product = 1.0. On the procedure:
Gastric tolerance was measured by oral administration to rats assessing the severity of the gastropathy induced in accordance with the criteria described by Wallace et al. (Am. J. Physiol. 259, G642, 1990).
Study of the anti-inflammatory (I) and analgesic (II) properties (pharmacodynamics) and gastrointestinal tolerance (III) (toxicity) of the test compounds after oral administration of doses ranging from 3 to 30 mg/Kg in carboxymethylcellulose suspensions and constructing dose-responsecurves.
Activities are expressed as the potency ratio compared to the natural product used as a unit standard. The nitroderivative is that of the shown examples, the natural reference compound is that shown as a reference.

In the next series the test system is nitrosynthetase (NOS). The experiment in a line: Nitrosynthetase (NOS) activity induced by LPS in rats. The format is in vivo, rat. The settings on record: oral, LPS only = 100. The procedure: The nitrosynthetase inhibition activity induced by lipopolysaccharide (LPS) was determined in rat neutrophils and stomach after administration of one of the test compounds and compared with that obtained after treatment of the suspension vehicle only.
In brief, Wistar rats fasting for 24 hours before treatment were orally administered the test product (10 mg/Kg) and intravenously (caudal vein) administered LPS (5 mg/Kg).
Four hours later the animals were sacrificed and the blood--for neutrophils isolation--and the stomach taken.
Enzyme activity was determined in accordance with the method described by Assreuy et al. (Br. J. Pharmacol. 108, 833, 1993).
Study of the inhibitory properties of the nitrosynthetase (NOS) activity induced by liposaccharide (LPS) in rats using oral doses ranging from 5 to 20 mg/Kg suspended in a carboxymethylcellulose base.

Procedure for Swiss mice: (§1) Study of the anti-inflammatory (I) and analgesic (II) properties (pharmacodynamics) and gastrointestinal tolerance (III) (toxicity) of the test compounds after oral administration of doses ranging from 3 to 30 mg/Kg in carboxymethylcellulose suspensions and constructing dose-responsecurves. […] Activities are expressed as the potency ratio compared to the natural product used as a unit standard.
Procedure for carrageenin-oedema: as §1

Regarding `O=C(c1ccccc1)c1ccc2n1CCC2C(=O)O` (stereo not shown) [KETOROLAC, reference compound], the “anti-inflammatory properties (I), potency ratio versus natural reference product” value in the series on carrageenin-oedema turned out to be 1.0. The “analgesic properties (II), potency ratio versus natural reference product” value in the series with Swiss mice worked out at 1.0. Besides, in the series on gastropathy, the “gastrointestinal tolerance (III) (toxicity), potency ratio versus natural reference product” value stood at 1.0.

Turning to `CC(C)Cc1ccc(C(C)C(=O)OCCOCCO[N+](=O)[O-])cc1` (stereo not shown) [Example 1d], in the series on carrageenin-oedema, the “anti-inflammatory properties (I), potency ratio versus natural reference product” value turned out to be 1.0. Further, in the series on Swiss mice, the “analgesic properties (II), potency ratio versus natural reference product” value amounted to 1.1. Also, in the series on gastropathy, the “gastrointestinal tolerance (III) (toxicity), potency ratio versus natural reference product” value came to 0.1.

As for `O=C(c1ccccc1)c1ccc2n1CCC2C(=O)OCCOCCO[N+](=O)[O-]` (stereo not shown) [Example 1f], the “anti-inflammatory properties (I), potency ratio versus natural reference product” value in the series on carrageenin-oedema turned out to be 1.0. In addition, the “analgesic properties (II), potency ratio versus natural reference product” value with Swiss mice turned out to be 1.0. Moreover, the “gastrointestinal tolerance (III) (toxicity), potency ratio versus natural reference product” value in the series on gastropathy was found to be 0.1.

In the case of `CC(C(=O)OCCOCCO[N+](=O)[O-])c1ccc(C(=O)c2ccccc2)s1` (stereo not shown) [Example 1g], the “anti-inflammatory properties (I), potency ratio versus natural reference product” value in the series with carrageenin-oedema is given as 0.9. Further, the “analgesic properties (II), potency ratio versus natural reference product” value in the series with Swiss mice is reported as 1.3. In addition, in the series with gastropathy, the “gastrointestinal tolerance (III) (toxicity), potency ratio versus natural reference product” value was 0.1.

Regarding `CC(C(=O)O)c1ccc(C(=O)c2ccccc2)s1` (stereo not shown) [TIAPROFENIC ACID, reference compound], the “anti-inflammatory properties (I), potency ratio versus natural reference product” value in the series on carrageenin-oedema is given as 1.0. In the series on Swiss mice, the “analgesic properties (II), potency ratio versus natural reference product” value is recorded as 1.0. Moreover, the “gastrointestinal tolerance (III) (toxicity), potency ratio versus natural reference product” value in the series on gastropathy is recorded as 1.0.

As to `CC(C(=O)OCCCCO[N+](=O)[O-])c1cccc(C(=O)c2ccccc2)c1` (stereo not shown) [NITROXYBUTYLKETOPROFEN, reference compound], the “NOS, neutrophils; inhibition relative to the group treated with LPS only” value with nitrosynthetase (NOS) (neutrophils) was determined as 55. Also, in the series on nitrosynthetase (NOS) (stomach), the “NOS, stomach; inhibition relative to the group treated with LPS only” value came to 35.

Turning to `CC(C)Cc1ccc(C(C)C(=O)O)cc1` (stereo not shown) [IBUPROFEN, reference compound], in the series on carrageenin-oedema, the “anti-inflammatory properties (I), potency ratio versus natural reference product” value came to 1.0. Besides, the “analgesic properties (II), potency ratio versus natural reference product” value with Swiss mice is given as 1.0. Further, the “gastrointestinal tolerance (III) (toxicity), potency ratio versus natural reference product” value in the series on gastropathy came to 1.0.

Take `CC(C(=O)O)c1ccc(-c2ccccc2)c(F)c1` (stereo not shown) [FLURBIPROFEN, reference compound]: in the series with carrageenin-oedema, the “anti-inflammatory properties (I), potency ratio versus natural reference product” value worked out at 1.0. Besides, the “analgesic properties (II), potency ratio versus natural reference product” value in the series with Swiss mice came out at 1.0.

For `COc1ccc2cc(C(C)C(=O)OCCOCCO[N+](=O)[O-])ccc2c1` (stereo not shown) [Example 1h], the “anti-inflammatory properties (I), potency ratio versus natural reference product” value in the series on carrageenin-oedema is 1.3. The “analgesic properties (II), potency ratio versus natural reference product” value in the series with Swiss mice is 1.3. Besides, the “gastrointestinal tolerance (III) (toxicity), potency ratio versus natural reference product” value with gastropathy stood at 0.1.
